From EP2457441A1, “Insecticide composition” (priority 2010, dated 2012)

Key:
[1] = species and route not given; cited from earlier work
Toxicity (LD50/DL50) = details: comparison of LD50 values

Molecule | DL50 [1] | LD50 [1] | toxicity relative to common salt (Toxicity (LD50/DL50)) | toxicity relative to sugar (Toxicity (LD50/DL50))
COC(C)(C)CCC[C@H](C)C/C=C/C(C)=C/C(=O)OC(C)C [S-METHOPRENE] | above 10000 mg/kg | – | – | –
CCOc1ccc(C(C)(C)COCc2cccc(Oc3ccccc3)c2)cc1 [ETOFENPROX] | – | 42880 mg/kg | about 15 times less | two times less
common salt | – | 3000 mg/kg | – | –
